Assay [1] has as its system human monocyte stimulated cytokine production (TNF-α). Briefly: Monocyte assay (LPS-stimulated TNF-α production). It is filed as cell-based. Conditions: 24 h, 200 ng/mL LPS, TNF-α by ELISA. The gist of the method:
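TNF-α release was measured by ELISA after 24 hrs at 37 C. Cells were stimulated with 200 ng/mL E. coli LPS, with compound added 30 minutes beforehand (0.1% DMSO vehicle). Cells were Ficoll/MACS-isolated CD14+ human monocytes adhered at 1×10^6 cells/mL, and viability was checked by trypan blue.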

The target of assay [2] is T1, Recombinant human IKKβ (residues 1-737) (Homo sapiens, UniProt O14920).
T1 construct: Recombinant human IKKβ (residues 1-737); GST (C); made in house
T1 sequence (O14920 1-737): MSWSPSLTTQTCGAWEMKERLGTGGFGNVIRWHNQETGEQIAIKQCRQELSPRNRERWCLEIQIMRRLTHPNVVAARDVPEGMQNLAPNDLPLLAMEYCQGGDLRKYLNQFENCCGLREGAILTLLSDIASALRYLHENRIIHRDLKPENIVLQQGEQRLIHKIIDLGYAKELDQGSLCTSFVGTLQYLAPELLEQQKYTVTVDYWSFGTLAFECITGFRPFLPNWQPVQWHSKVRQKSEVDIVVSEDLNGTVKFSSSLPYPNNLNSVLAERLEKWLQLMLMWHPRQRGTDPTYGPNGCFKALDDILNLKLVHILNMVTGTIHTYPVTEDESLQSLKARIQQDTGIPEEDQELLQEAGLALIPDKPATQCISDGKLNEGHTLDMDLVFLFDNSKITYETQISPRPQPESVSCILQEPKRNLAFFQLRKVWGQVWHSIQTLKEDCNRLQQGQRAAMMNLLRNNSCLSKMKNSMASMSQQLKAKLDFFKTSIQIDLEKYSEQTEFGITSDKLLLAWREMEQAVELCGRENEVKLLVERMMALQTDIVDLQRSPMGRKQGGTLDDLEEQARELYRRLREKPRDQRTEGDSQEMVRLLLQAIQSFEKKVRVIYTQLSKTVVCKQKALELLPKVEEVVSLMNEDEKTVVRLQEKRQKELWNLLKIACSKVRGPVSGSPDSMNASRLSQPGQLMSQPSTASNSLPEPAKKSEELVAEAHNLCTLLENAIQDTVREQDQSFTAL
Briefly: IKK2 assay (TR-FRET). In kind it is biochemical. Conditions: ATP 1 μM final, read-out: pIC50 against IKK2 (converted). The gist of the method:
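TR-FRET readout (665 nm over 620 nm Eu reference) of GST-IB Ser32/36 phosphorylation after 60 min detection. Reaction: 1 μM ATP, 25 nM substrate, 0.5-5 nM GST-fused IKKβ 1-737 from baculovirus, pH 7.4 HEPES buffer, 1.7% DMSO, 15 min room temperature, EDTA-terminated.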
A general note: Time-resolved FRET reads energy transfer from a long-lived donor to a nearby acceptor.

The record followed here is patent publication US8063071B2 (GlaxoSmithKline, LLC, priority 2007, dated 2011).

The structures appear in SMILES notation. Counter-ions that a name gives are not always drawn.

`CCS(=O)(=O)N1CCC(c2c[nH]c3c(C(N)=O)cc(-c4cc(CN5CCC[C@H]5COC)cs4)cc23)CC1` [Example 215, 3-[1-(ethylsulfonyl)-4-piperidinyl]-5-[4-({(2S)-2-[(methyloxy)methyl]-1-pyrrolidinyl}methyl)-2-thienyl]-1H-indole-7-carboxamide trifluoroacetate]: the IC50 is at most 1.5 µM in assay [1] and at most 10 µM in assay [2].
On the same counts, the results for `CCS(=O)(=O)N1CCC(c2c[nH]c3c(C(N)=O)cc(-c4cc(CN5[C@H](C)CC[C@H]5C)cs4)cc23)CC1` [Example 216, 5-(4-{[(2R,5R)-2,5-dimethyl-1-pyrrolidinyl]methyl}-2-thienyl)-3-[1-(ethylsulfonyl)-4-piperidinyl]-1H-indole-7-carboxamide trifluoroacetate] are at most 1.5 µM and at most 10 µM.
On the same counts, the results for `CCS(=O)(=O)N1CCC(c2c[nH]c3c(C(N)=O)cc(-c4csc(CN5CCC[C@@H]5C)c4)cc23)CC1` [Example 217, 3-[1-(ethylsulfonyl)-4-piperidinyl]-5-(5-{[(2S)-2-methyl-1-pyrrolidinyl]methyl}-3-thienyl)-1H-indole-7-carboxamide] are at most 1.5 µM and at most 10 µM.
On the same counts, the results for `CCS(=O)(=O)N1CCC(c2c[nH]c3c(C(N)=O)cc(-c4csc(CN5CCC[C@H]5C)c4)cc23)CC1` [Example 218, 3-[1-(ethylsulfonyl)-4-piperidinyl]-5-(5-{[(2R)-2-methyl-1-pyrrolidinyl]methyl}-1′-3-thienyl)-1H-indole-7-carboxamide] are at most 1.5 µM and at most 10 µM.
Consider `CCC(c1cc(-c2cc(C(N)=O)c3[nH]cc(C4CCN(S(=O)(=O)CC)CC4)c3c2)cs1)N1CCCC1` (centres unmarked) [Example 219, 3-[1-(ethylsulfonyl)-4-piperidinyl]-5-{5-[1-(1-pyrrolidinyl)propyl]-3-thienyl}-1H-indole-7-carboxamide trifluoroacetate], for which the figures for the IC50 in assay [1] and in assay [2] were at most 1.5 µM and at most 10 µM, respectively.
Turning to `CC(C)S(=O)(=O)N1CCC(c2c[nH]c3c(C(N)=O)cc(-c4csc(CN(C)C)c4)cc23)CC1` [Example 220, 5-{5-[(dimethylamino)methyl]-3-thienyl}-3-{1-[(1-methylethyl)sulfonyl]-4-piperidinyl}-1H-indole-7-carboxamide trifluoroacetate], the IC50 is at most 1.5 µM in assay [1] and at most 10 µM in assay [2].
In the same order, the values of `CCS(=O)(=O)N1CCC(c2c[nH]c3c(C(N)=O)cc(-c4csc(CCNCC(C)C)c4)cc23)CC1` [Example 222, 3-[1-(ethylsulfonyl)-4-piperidinyl]-5-(5-{2-[(2-methylpropyl)amino]ethyl}-3-thienyl)-1H-indole-7-carboxamide trifluoroacetate] are at most 1.5 µM and at most 10 µM.
On the same counts, the results for `CCS(=O)(=O)N1CCC(c2c[nH]c3c(C(N)=O)cc(-c4csc(CCN(C)C)c4)cc23)CC1` [Example 223, 5-{5-[2-(dimethylamino)ethyl]-3-thienyl}-3-[1-(ethylsulfonyl)-4-piperidinyl]-1H-indole-7-carboxamide trifluoroacetate] are at most 1.5 µM and at most 10 µM.
On the same counts, the results for `CCS(=O)(=O)N1CCC(c2c[nH]c3c(C(N)=O)cc(-c4ccc(N5CCCC5)nc4)cc23)CC1` [Example 224, 3-[1-(ethylsulfonyl)-4-piperidinyl]-5-[6-(1-pyrrolidinyl)-3-pyridinyl]-1H-indole-7-carboxamide trifluoroacetate] are above 1 µM and at most 10 µM.
Regarding `CCCNc1ccc(-c2cc(C(N)=O)c3[nH]cc(C4CCN(S(=O)(=O)CC)CC4)c3c2)cn1` [Example 227, 3-[1-(ethylsulfonyl)-4-piperidinyl]-5-[6-(propylamino)-3-pyridinyl]-1H-indole-7-carboxamide trifluoroacetate], the IC50 in assay [1] was at most 1.5 µM; in assay [2] it was at most 10 µM.
On the same counts, the results for `CCS(=O)(=O)N1CCC(c2c[nH]c3c(C(N)=O)cc(-c4csc(CNC)c4)cc23)CC1` [Example 230, 3-[1-(ethylsulfonyl)-4-piperidinyl]-5-{5-[(methylamino)methyl]-3-thienyl}-1H-indole-7-carboxamide trifluoroacetate] are at most 1.5 µM and at most 10 µM.
On the same counts, the results for `CCS(=O)(=O)N1CCC(c2c[nH]c3c(C(N)=O)cc(-c4csc(CNC(C)C)c4)cc23)CC1` [Example 231, 3-[1-(ethylsulfonyl)-4-piperidinyl]-5-(5-{[(1-methylethyl)amino]methyl}-3-thienyl)-1H-indole-7-carboxamide trifluoroacetate] are at most 1.5 µM and at most 10 µM.
On the same counts, the results for `CCS(=O)(=O)N1CCC(c2c[nH]c3c(C(N)=O)cc(-c4csc(CN5CCCC5)c4)cc23)CC1` [Example 232, 3-[1-(ethylsulfonyl)-4-piperidinyl]-5-[5-(1-pyrrolidinylmethyl)-3-thienyl]-1H-indole-7-carboxamide trifluoroacetate] are at most 1.5 µM and at most 10 µM.
In the case of `CCNCc1cc(-c2cc(C(N)=O)c3[nH]cc(C4CCN(S(=O)(=O)CC)CC4)c3c2)cs1` [Example 233, 5-{5-[(ethylamino)methyl]-3-thienyl}-3-[1-(ethylsulfonyl)-4-piperidinyl]-1H-indole-7-carboxamide trifluoroacetate], the IC50 in assay [1] was at most 1.5 µM; in assay [2], at most 10 µM.
On the same counts, the results for `CCS(=O)(=O)N1CCC(c2c[nH]c3c(C(N)=O)cc(-c4csc(CN[C@H](C)CO)c4)cc23)CC1` [Example 234, 3-[1-(ethylsulfonyl)-4-piperidinyl]-5-[5-({[(1R)-2-hydroxy-1-methylethyl]amino}methyl)-3-thienyl]-1H-indole-7-carboxamide trifluoroacetate (salt)] are at most 1.5 µM and at most 10 µM.
`CCS(=O)(=O)N1CCC(c2c[nH]c3c(C(N)=O)cc(-c4csc(CN5CCCCC5)c4)cc23)CC1` [Example 235, 3-[1-(ethylsulfonyl)-4-piperidinyl]-5-[5-(1-piperidinylmethyl)-3-thienyl]-1H-indole-7-carboxamide trifluoroacetate]: the IC50 was at most 1.5 µM in assay [1] and at most 10 µM in assay [2].
For `CCS(=O)(=O)N1CCC(c2c[nH]c3c(C(N)=O)cc(-c4csc(CN5CCOCC5)c4)cc23)CC1` [Example 236, 3-[1-(ethylsulfonyl)-4-piperidinyl]-5-[5-(4-morpholinylmethyl)-3-thienyl]-1H-indole-7-carboxamide trifluoroacetate], the results for the IC50 in assay [1] and in assay [2] were at most 1.5 µM and at most 10 µM, respectively.
On the same counts, the results for `CCS(=O)(=O)N1CCC(c2c[nH]c3c(C(N)=O)cc(-c4coc(CNC)c4)cc23)CC1` [Example 237, 3-[1-(ethylsulfonyl)-4-piperidinyl]-5-{5-[(methylamino)methyl]-3-furanyl}-1H-indole-7-carboxamide trifluoroacetate] are at most 1.5 µM and at most 10 µM.
Turning to `CCS(=O)(=O)N1CCC(c2c[nH]c3c(C(N)=O)cc(-c4csc(C(C)N5CCCC5)c4)cc23)CC1` (centres unmarked) [Example 238, 3-[1-(ethylsulfonyl)-4-piperidinyl]-5-{5-[1-(1-pyrrolidinyl)ethyl]-3-thienyl}-1H-indole-7-carboxamide trifluoroacetate], the results for the IC50 in assay [1] and in assay [2] were at most 1.5 µM and at most 10 µM, respectively.
